# Experimental data published in patent US20140199401A1, “EXTENDED RELEASE PHARMACEUTICAL COMPOSITIONS OF FESOTERODINE” (CADILA HEALTHCARE LIMITED, priority 2011, published 2014).
# Structures can show the parent of a compound that is named as a salt.
# Experiment: Particle size data of fesoterodine fumarate
# Type: physicochemical
# Procedure: (Particle size data of Fesoterodine fumarate: D10-47.3μ; D50-156μ; D90-293μ) • Procedure: Mixture of fesoterodine fumarate, microcrystalline cellulose, corn starch, lactose monohydrate, hypromellose, and povidone K 30 was lubricated with magnesium stearate and talc. The lubricated blend was then compressed into tablets. The tablets were finally coated with Opadry dispersion in purified water.
# The formulation was prepared with the same excipients in the same quantity as used in Example 1. Only difference is in the particle size of fesoterodine fumarate used in that formulation. In this comparative example, particle size of fesoterodine fumarate is used such that D10-2.67μ; D50-34.48μ; D90-125.3μ.
# [1] = fesoterodine fumarate used in Comparative Example 1
# [2] = fesoterodine fumarate used in Example 1
smiles,measurement,setting,value
"CC(C)C(=O)Oc1ccc(CO)cc1[C@H](CCN(C(C)C)C(C)C)c1ccccc1 [Fesoterodine fumarate, 2-[(1R)-3-(diisopropylamino)-1-phenylpropyl]-4-(hydroxymethyl)phenyl isobutyrate]",Particle size D10,[1],2.67 μ
same,Particle size D50,[1],34.48 μ
same,Particle size D90,[1],125.3 μ
same,Particle size D10,[2],47.3 μ
same,Particle size D50,[2],156 μ
same,Particle size D90,[2],293 μ
